Reference: PubChem BioAssay AID226 (DTP/NCI, 2004)
Where “and” joins values, the source holds several entries; their conditions need not be identical. Identical values can stand only once. Toxic doses and inconclusive results are not listed.

Test system: B6C3F1 mice, intracerebral ependymoblastoma, median survival T/C
Assay: NCI In Vivo Anticancer Drug Screen. Data for tumor model Ependymoblastoma (intracerebral) in B6C3F1 mice
Settings: endpoint: median survival time, higher = longer survival
Procedure: The antitumor activity of compounds was measured in mice bearing transplantable tumors. Survival or tumor size were measured and the results are expressed as the measurement made in the treated group (T) divided by the measurement made in the vehicle treated control group (C). The tumor model used in this assay is Ependymoblastoma (intracerebral) in B6C3F1 mice

[1] = dose: 100.0 mg/kg/injection, schedule: Q01DX005 (ip), vehicle: saline with Tween-80
[2] = dose: 4.0 mg/kg/injection, schedule: Q01DX005 (ip), vehicle: saline
[3] = dose: 8.0 mg/kg/injection, schedule: Q01DX005 (ip), vehicle: saline
[4] = dose: 16.0 mg/kg/injection, schedule: Q01DX005 (ip), vehicle: saline
[5] = dose: 32.0 mg/kg/injection, schedule: Q01DX005 (ip), vehicle: saline
[6] = dose: 8.0 mg/kg/injection, schedule: Q01DX005 (ip), vehicle: saline with Tween-80
[7] = dose: 16.0 mg/kg/injection, schedule: Q01DX005 (ip), vehicle: saline with Tween-80
[8] = dose: 32.0 mg/kg/injection, schedule: Q01DX005 (ip), vehicle: saline with Tween-80
[9] = dose: 64.0 mg/kg/injection, schedule: Q01DX005 (ip), vehicle: saline with Tween-80
[10] = dose: 128.0 mg/kg/injection, schedule: Q01DX005 (ip), vehicle: saline with Tween-80
[11] = dose: 0.25 mg/kg/injection, schedule: Q01DX005 (ip), vehicle: saline
[12] = dose: 0.5 mg/kg/injection, schedule: Q01DX005 (ip), vehicle: saline
[13] = dose: 1.0 mg/kg/injection, schedule: Q01DX005 (ip), vehicle: saline
[14] = dose: 2.0 mg/kg/injection, schedule: Q01DX005 (ip), vehicle: saline
[15] = dose: 8.0 mg/kg/injection, schedule: Q01DX005 (ip), vehicle: Klucel (hydroxypropylcellulose) (HPC)
[16] = dose: 64.0 mg/kg/injection, schedule: Q01DX005 (ip), vehicle: saline
[17] = dose: 128.0 mg/kg/injection, schedule: Q01DX005 (ip), vehicle: saline
[18] = dose: 256.0 mg/kg/injection, schedule: Q01DX005 (ip), vehicle: saline
[19] = dose: 256.0 mg/kg/injection, schedule: Q01DX005 (ip), vehicle: saline with Tween-80
[20] = dose: 512.0 mg/kg/injection, schedule: Q01DX005 (ip), vehicle: saline with Tween-80

SMILES: CN(C)c1nc(N(C)C)nc(N(C)C)n1
- T/C (dose: 50.0 mg/kg/injection, schedule: Q01DX005 (ip), vehicle: saline): 94 % of control
- T/C [1]: 100 % of control
- T/C (dose: 100.0 mg/kg/injection, schedule: Q01DX005 (ip), vehicle: saline): 94 % of control
- T/C (dose: 200.0 mg/kg/injection, schedule: Q01DX001 (ip), vehicle: saline with Tween-80): 92 % of control
- T/C (dose: 200.0 mg/kg/injection, schedule: Q01DX001 (ip), vehicle: saline): 96 % of control and 99 % of control and 104 % of control
- T/C (dose: 200.0 mg/kg/injection, schedule: Q01DX005 (ip), vehicle: saline with Tween-80): 99 % of control
- T/C (dose: 200.0 mg/kg/injection, schedule: Q01DX005 (ip), vehicle: saline): 101 % of control
- T/C (dose: 400.0 mg/kg/injection, schedule: Q01DX001 (ip), vehicle: saline with Tween-80): 100 % of control
- T/C (dose: 400.0 mg/kg/injection, schedule: Q01DX001 (ip), vehicle: saline): 97 % of control and 107 % of control and 89 % of control
- T/C (dose: 400.0 mg/kg/injection, schedule: Q01DX005 (ip), vehicle: saline with Tween-80): 87 % of control
- T/C (dose: 800.0 mg/kg/injection, schedule: Q01DX001 (ip), vehicle: saline with Tween-80): 100 % of control
- T/C (dose: 800.0 mg/kg/injection, schedule: Q01DX001 (ip), vehicle: saline): 92 % of control (2×) and 96 % of control
- T/C (dose: 1600.0 mg/kg/injection, schedule: Q01DX001 (ip), vehicle: saline): 106 % of control

SMILES: CCC1=C(c2ccc(OC)cc2)CCC(C(=O)O)C1C (stereo not given)
- T/C [2]: 102 % of control
- T/C [3]: 102 % of control
- T/C [4]: 102 % of control
- T/C [5]: 103 % of control

SMILES: CC1=C(/C=C/C(C)=C/C=C/C(C)=C/C(=O)O)C(C)(C)CCC1
- T/C [6]: 99 % of control
- T/C [7]: 119 % of control
- T/C [8]: 115 % of control
- T/C [9]: 118 % of control
- T/C [10]: 109 % of control

SMILES: COc1cccc2c1C(=O)c1c(O)c3c(c(O)c1C2=O)C[C@@](O)(C(=O)CO)C[C@@H]3OC1CC(N)C(O)C(C)O1 (stereo not given in full)
- T/C (dose: 0.06 mg/kg/injection, schedule: Q03HX008 (ip), vehicle: saline): 104 % of control
- T/C (dose: 0.12 mg/kg/injection, schedule: Q01DX005 (ip), vehicle: water): 96 % of control
- T/C (dose: 0.12 mg/kg/injection, schedule: Q03HX008 (ip), vehicle: saline): 100 % of control and 113 % of control
- T/C [11]: 94 % of control and 113 % of control and 114 % of control
- T/C (dose: 0.25 mg/kg/injection, schedule: Q01DX005 (ip), vehicle: water): 102 % of control
- T/C (dose: 0.25 mg/kg/injection, schedule: Q03HX008 (ip), vehicle: saline): 106 % of control and 120 % of control
- T/C [12]: 103 % of control and 105 % of control and 114 % of control
- T/C (dose: 0.5 mg/kg/injection, schedule: Q01DX005 (ip), vehicle: suspension in saline): 103 % of control
- T/C (dose: 0.5 mg/kg/injection, schedule: Q01DX005 (ip), vehicle: water): 92 % of control and 113 % of control
- T/C (dose: 0.5 mg/kg/injection, schedule: Q03HX008 (ip), vehicle: saline): 114 % of control
- T/C [13]: 109 % of control and 110 % of control and 116 % of control
- T/C (dose: 1.0 mg/kg/injection, schedule: Q01DX005 (ip), vehicle: suspension in saline): 108 % of control
- T/C (dose: 1.0 mg/kg/injection, schedule: Q01DX005 (ip), vehicle: water): 102 % of control and 116 % of control
- T/C [14]: 116 % of control and 118 % of control
- T/C (dose: 2.0 mg/kg/injection, schedule: Q01DX005 (ip), vehicle: suspension in saline): 121 % of control
- T/C (dose: 2.0 mg/kg/injection, schedule: Q01DX005 (ip), vehicle: water): 107 % of control and 113 % of control
- T/C (dose: 4.0 mg/kg/injection, schedule: Q01DX001 (oral), vehicle: saline): 100 % of control
- T/C [2]: 100 % of control and 118 % of control and 86 % of control
- T/C (dose: 8.0 mg/kg/injection, schedule: Q01DX001 (oral), vehicle: saline): 96 % of control
- T/C (dose: 16.0 mg/kg/injection, schedule: Q01DX001 (oral), vehicle: saline): 103 % of control
- T/C (dose: 32.0 mg/kg/injection, schedule: Q01DX001 (oral), vehicle: saline): 89 % of control

SMILES: COc1ccc2c(c1O)-c1cccc3c1[C@@H](C2)N(CCCl)CC3
- T/C [11]: 105 % of control
- T/C [12]: 100 % of control
- T/C [13]: 96 % of control
- T/C [14]: 99 % of control and 87 % of control
- T/C (dose: 4.0 mg/kg/injection, schedule: Q01DX005 (ip), vehicle: Klucel (hydroxypropylcellulose) (HPC)): 98 % of control
- T/C [2]: 104 % of control
- T/C [15]: 98 % of control
- T/C [3]: 93 % of control
- T/C [4]: 88 % of control
- T/C [5]: 86 % of control

SMILES: Cc1cnc(/C=N\NC(N)=S)c2cccc(N)c12
- T/C (dose: 12.5 mg/kg/injection, schedule: Q01DX005 (ip), vehicle: saline with Tween-80): 100 % of control
- T/C (dose: 25.0 mg/kg/injection, schedule: Q01DX005 (ip), vehicle: saline with Tween-80): 103 % of control
- T/C (dose: 50.0 mg/kg/injection, schedule: Q01DX005 (ip), vehicle: saline with Tween-80): 104 % of control
- T/C [1]: 102 % of control

SMILES: COc1cc2cc3c4cc(OC)c(OC)cc4cc[n+]3c(C)c2cc1OC (tested in a mixture with another compound)
- T/C [4]: 94 % of control and 98 % of control and 111 % of control
- T/C [5]: 100 % of control (2×) and 120 % of control
- T/C [16]: 102 % of control and 105 % of control and 118 % of control
- T/C [17]: 104 % of control and 109 % of control
- T/C [18]: 106 % of control

SMILES: Nc1nc(SCc2ccccc2Cl)c2ncn(C3OC(CO)C(O)C3O)c2n1 (stereo not given)
- T/C (dose: 12.5 mg/kg/injection, schedule: Q01DX005 (ip), vehicle: Klucel (hydroxypropylcellulose) (HPC)): 103 % of control and 104 % of control
- T/C (dose: 25.0 mg/kg/injection, schedule: Q01DX005 (ip), vehicle: Klucel (hydroxypropylcellulose) (HPC)): 98 % of control
- T/C (dose: 50.0 mg/kg/injection, schedule: Q01DX005 (ip), vehicle: Klucel (hydroxypropylcellulose) (HPC)): 110 % of control and 119 % of control

SMILES: CCC(=O)O[C@H]1CC[C@H]2[C@@H]3CC[C@H]4CC(=O)[C@H](C)C[C@]4(C)[C@H]3CC[C@]12C
- T/C [15]: 95 % of control and 102 % of control
- T/C [6]: 98 % of control and 108 % of control
- T/C (dose: 16.0 mg/kg/injection, schedule: Q01DX005 (ip), vehicle: Klucel (hydroxypropylcellulose) (HPC)): 90 % of control and 101 % of control
- T/C [7]: 95 % of control and 96 % of control
- T/C (dose: 32.0 mg/kg/injection, schedule: Q01DX005 (ip), vehicle: Klucel (hydroxypropylcellulose) (HPC)): 97 % of control and 99 % of control
- T/C [8]: 103 % of control and 107 % of control
- T/C (dose: 64.0 mg/kg/injection, schedule: Q01DX005 (ip), vehicle: Klucel (hydroxypropylcellulose) (HPC)): 95 % of control and 101 % of control
- T/C [9]: 98 % of control and 111 % of control
- T/C (dose: 128.0 mg/kg/injection, schedule: Q01DX005 (ip), vehicle: Klucel (hydroxypropylcellulose) (HPC)): 98 % of control and 87 % of control
- T/C [10]: 106 % of control and 108 % of control
- T/C (dose: 256.0 mg/kg/injection, schedule: Q01DX005 (ip), vehicle: Klucel (hydroxypropylcellulose) (HPC)): 93 % of control and 87 % of control
- T/C [19]: 97 % of control and 113 % of control
- T/C (dose: 512.0 mg/kg/injection, schedule: Q01DX005 (ip), vehicle: Klucel (hydroxypropylcellulose) (HPC)): 87 % of control
- T/C [20]: 97 % of control and 101 % of control

SMILES: CC1(C)OCC(CO)(Nc2nc(N3CC3)nc(N3CC3)n2)CO1
- T/C (dose: 1.25 mg/kg/injection, schedule: Q01DX005 (ip), vehicle: suspension in saline): 105 % of control
- T/C (dose: 2.5 mg/kg/injection, schedule: Q01DX005 (ip), vehicle: suspension in saline): 103 % of control
- T/C (dose: 5.0 mg/kg/injection, schedule: Q01DX005 (ip), vehicle: suspension in saline): 113 % of control

SMILES: CCC(=O)O[C@H]1CC[C@H]2[C@@H]3[C@@H](C)CC4=CC(=O)CC[C@]4(C)[C@H]3CC[C@]12C
- T/C [8]: 99 % of control and 106 % of control
- T/C [9]: 97 % of control and 106 % of control
- T/C [10]: 97 % of control and 101 % of control
- T/C [19]: 101 % of control and 89 % of control
- T/C [20]: 93 % of control and 100 % of control
- T/C (dose: 768.0 mg/kg/injection, schedule: Q01DX005 (ip), vehicle: saline with Tween-80): 94 % of control

SMILES: O=NN(CCCl)C(=O)NC1CCN(Cc2ccccc2)CC1
- T/C (dose: 12.5 mg/kg/injection, schedule: Q01DX001 (ip), vehicle: water): 124 % of control
- T/C (dose: 50.0 mg/kg/injection, schedule: Q01DX001 (ip), vehicle: water): 160 % of control
- T/C (dose: 100.0 mg/kg/injection, schedule: Q01DX001 (ip), vehicle: water): 242 % of control

SMILES: CN(CCO)/N=N/c1nc[nH]c1C(N)=O
- T/C [5]: 116 % of control
- T/C [16]: 109 % of control and 112 % of control
- T/C [17]: 114 % of control
- T/C [18]: 124 % of control
